Marks after values point to notes of the source that are not given here.

A short description of data set [1]: Shake flask determination of distribution coefficient (log D). The class given is physicochemical. As to conditions: 1-octanol / phosphate buffer. How it is done: Shake flask method of determining log D—Miniaturized version of log D assay described in Stopher, D. and McClean, S. J. Pharm. Pharmacol. 1990, 42, 144.
Nadolol, mexiletine, propranolol, quinidine, amitriptyline, and chlorproazine were dissolved in DMSO to a concentration of 10 mM and used as controls in each plate. D-neo-Inositol, 5-[[(2E)-3-[4-[[(5E)-5-[[(3-chloro-2,6-difluorophenyl)methoxy]imino]-5,6-dideoxy-β-D-arabino-hexofuranosyl]oxy]-3-hydroxyphenyl]-2-methyl-1-oxo-2-propenyl]amino]-5-deoxy-1,2-O-methylene-(9Cl) (CAS 247598-17) is used as an Internal Standard (IS).
All liquid handling steps were performed by a Biomek FX. Buffer-saturated 1-octanol (149 μL/well) was added to duplicate 1 mL capacity 96-well plates. Test compounds (10 mM in DMSO; 2 μL/well) and controls (10 mM in DMSO; 2 μL/well) were transferred from Matrix 2D barcoded storage tubes to the 96-well plates.
Following the addition of 1-octanol saturated phosphate buffer (149 μL/well), the plates were sealed with silicone well cap-mats. […]
Samples were analyzed by micro-flow reversed-phase liquid chromatography coupled to tandem mass spectrometry (μfLC-MS/MS). […]
Peak areas were corrected by dilution factors and incorporating internal standard, and the ratio of the corrected peak areas were used to calculate the results (log D value). The log D value for each compound was calculated using the following equation: […]

The nature of data set [2]: In vitro bone marrow assay. The format is cell-based. As to conditions: primary human bone marrow mononuclear cells, 5 days exposure, total cell count, read-out: Human Bone Marrow Tox IC50. The procedure: In vitro bone marrow assay—Chen, W., et al., J. Pharmacokinetics and Pharmacodynamics, 2020, 47, 163-182.
Primary human bone marrow mononuclear cells (Lonza) were cultured in stemline II hematopoietic stem cell expansion medium (Sigma Aldrich), supplemented with 5% FBS and under induction by the following cytokines (R&D Systems): 25 ng/mL stem cell factor (SCF), ng/mL G-CSF, 10 ng/mL granulocyte macrophage-colony stimulating factor, 3 U/mL erythropoietin (EPO), 15 ng/mL thrombopoietin (TPO), 10 ng/mL IL3, 10 ng/mL IL6, and ng/mL Flt3 ligand. Cell cultures were maintained in the 37° C., 5% CO2, and 98% humidity incubator (see reference for further details). Cells were preincubated for 1 day and were then exposed to either DMSO or compound for 5 additional days. Cell counts were determined manually using a hemocytometer from 10 μL aliquots and converted to the total cell number by adjusting for the volume of the cell culture medium in each well. While the total cell count included myeloid, erythroid, and megakaryocytic lineages, neutrophil precursors comprised the majority of the total cell population given the stimulatory conditions of the cell culture. […]

For data set [3], the system named is RSV A2. The data set is described as follows: RSV plaque reduction assay in HepG2 cells. The class given is cell-based. To be noted: human respiratory syncytial virus, HepG2, read-out: RSV A2 plaque, HepG2, EC50 (nM). An excerpt:
The RSV plaque reduction assay is an infectivity assay which allows quantification of the number of infectious units in a distinct foci of RSV infection. As each plaque originates from a single infectious virus particle an accurate calculation of the anti-viral effect can be obtained by counting plaques in the presence and absence of an anti-viral compound. HepG2 cells (ECACC: 85011430) were passaged in flasks and seeded in 24-well plates in DMEM containing antibiotics and supplemented with 10% FBS. During inoculation and subsequent incubation, cells were cultured in DMEM containing 2% FBS. 100 plaque forming unit (PFU)/well of RSV (RSV A2 VR-1540) was mixed with serial dilutions of compound. Subsequently, 100 μL of the virus/compound mixtures was added to confluent HepG2 cell monolayers. Plates were incubated at 37° C. in a humidified 5% CO2 incubator for 2 hrs. The inoculum was then removed and 1 ml of overlay (4% CMC in 2% DMEM) was added to each well. Cells were cultured for 48 h at 37° C. in a humidified 5% CO2 incubator and then fixed with 75% acetone-25% methanol solution. Plates were washed under running water and blocking solution (2% skimmed milk powder in PBS-Tween) was added to each well and plates incubated on a shaker for 1 h at 37° C. […]
(In general: Plaque reduction counts the foci of infection that form in a cell layer.)

A short description of data set [4]: Relay method using human hepatocytes (clearance). The class given is in vitro ADME. To be noted: human hepatocytes incubations under relay conditions. An excerpt: Relay Method Using Human Hepatocytes—Di, L., et al., Drug Metabolism and Disposition, 2012, 40, 1860-1865.
Pooled cryopreserved human hepatocytes of 10 donors were purchased from Celsis IVT (Baltimore, MD). This lot of pooled hepatocytes was used for all the studies. When selecting new lots of hepatocytes, enzyme activities need to be verified using marker compounds. Upon thawing, the hepatocytes were resuspended in Williams' medium E (custom formula number 91-5233EC; Invitrogen, Grand Island, NY) supplemented with HEPES and Na2CO3. The cells were counted using the trypan blue exclusion method, and the 24-well hepatocyte plates containing 0.5 million cells/ml were spiked with a compound at a final concentration of 1 μM (dimethyl sulfoxide, final concentration 0.025%; methanol, final concentration 0.125%), in a final incubation volume of 0.50 ml. […]
The LC mobile phases were as follows: (A) HPLC grade water containing 0.1% formic acid, and (B) acetonitrile containing 0.1% formic acid. […] Terfenadine was used as an internal standard for LC-MS/MS quantification in positive ion multiple reaction monitoring mode. All of the test compounds had good linearity with R^2>0.99, and the limit of quantitation was 1 nM for all of the compounds.
Human in vitro intrinsic clearance was calculated using methods as previously described in the reference above.

Data set [5] concerns RSV. To be noted: Antimicrobial Agents and Chemotherapy 2007 (Chapman et al); cited from earlier work.

`CCS(=O)(=O)c1ccc(-c2nn3c(c2C(=O)N[C@H]2N=C(c4ccccc4)c4cccc(F)c4NC2=O)OCC(C)(C)C3)c(F)c1` [Example 2, (S)-2-(4-(ethylsulfonyl)-2-fluorophenyl)-N-(9-fluoro-2-oxo-5-phenyl-2,3-dihydro-1H-benzo[e][1,4]diazepin-3-yl)-6,6-dimethyl-6,7-dihydro-5H-pyrazolo[5,1-b][1,3]oxazine-3-carboxamide]: in data set [1], the logD (usually lipophilicity at a set pH, counting ionised and neutral species) amounted to 3. In data set [2], the IC50 – broadly, the concentration that inhibits the measured activity by half – at 5 days is > 40000 nM. In data set [3], the EC50 – broadly, the concentration that produces a half-maximal response – is 3.5 nM. The “Human Hepatocyte CLint,app (mL/min/million)” value in data set [4] is <0.14* mL/min/million.

For `O=C(Nc1ccccc1F)N[C@H]1N=C(c2ccccc2)c2ccccc2NC1=O` [RSV604], the anti-RSV activity entry in data set [5] is recorded as “sub-micromolar”.

The values above are taken from patent US20250228869A1, “Benzodiazepine Pyrazolo Carboxamides as N-protein Inhibitors” (Pfizer Inc., priority 2024, published 2025).
